Test results reported in patent US20100160279A1, “Azetidine Derivatives as Muscarinic Receptor Antagonists” (Pfizer Inc, priority 2006, published 2010).

Molecular target: T1, human muscarinic M3 receptor (Homo sapiens, UniProt P20309)
T1 construct: expressed in transfected cells
Experiment: hM3 β-Lac potency assay (cell based β-lactamase, inhibition of carbamyl choline induced signal)
Conditions: CHO cells expressing human M3 receptor with NFAT-β-lactamase reporter; 80 nM carbamyl choline, 4 h; IC50 converted to Ki by Cheng-Prusoff
Experimental: M3 potency was determined in CHO-K1 cells transfected with the NFAT-Betalactamase gene. CHO (Chinese Hamster Ovary) cells recombinantly expressing the human muscarinic M3 receptor were transfected with the NFAT_β-Lac_Zeo plasmid.
The cells were re-suspended at 2×10^5 cells/ml in growth medium (composition as described above). […] Muscarinic M3 receptor signalling was stimulated using 80 nM carbamyl choline (Aldrich N240-9) incubated with the cells for 4 h at 37° C./5% CO2 and monitored at the end of the incubation period using a Tecan SpectraFluor+ plate reader (λ-excitation 405 nm, emission 450 nm and 503 nm). […] Inhibition curves were plotted and IC50 values generated using a 4-parameter sigmoid fit and converted to Ki values using the Cheng-Prusoff correction and the KD value for carbamyl choline in the assay.

T1 sequence (P20309 whole entry): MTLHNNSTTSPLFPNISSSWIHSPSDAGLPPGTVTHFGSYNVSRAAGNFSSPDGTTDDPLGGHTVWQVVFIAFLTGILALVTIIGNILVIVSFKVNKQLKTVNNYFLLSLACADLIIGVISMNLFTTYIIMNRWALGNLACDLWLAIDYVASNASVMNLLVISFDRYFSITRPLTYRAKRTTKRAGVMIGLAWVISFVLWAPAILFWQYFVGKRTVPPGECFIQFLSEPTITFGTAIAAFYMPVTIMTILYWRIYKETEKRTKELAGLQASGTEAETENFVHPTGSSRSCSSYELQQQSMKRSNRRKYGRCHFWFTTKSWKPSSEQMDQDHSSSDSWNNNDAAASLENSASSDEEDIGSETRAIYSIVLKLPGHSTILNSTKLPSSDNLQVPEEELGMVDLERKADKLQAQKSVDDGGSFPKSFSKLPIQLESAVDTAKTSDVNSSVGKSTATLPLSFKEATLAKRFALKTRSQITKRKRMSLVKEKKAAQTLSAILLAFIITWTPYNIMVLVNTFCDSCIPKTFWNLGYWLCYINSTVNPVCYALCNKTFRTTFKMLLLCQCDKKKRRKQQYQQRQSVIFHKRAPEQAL

Structure (SMILES) | Ki [pM]
CC(C)(CCC(C(N)=O)(c1ccccc1)c1ccccc1)N1CC(NCc2ccccc2)C1 [Example 2, 5-(3-Benzylamino-azetidin-1-yl)-5-methyl-2,2-diphenyl-hexanoic acid amide] | 556
CC(C)(CCC(C(N)=O)(c1ccccc1)c1ccccc1)N1CC(NCc2cccc(O)c2Cl)C1 [Example 3, 5-[3-(2-Chloro-3-hydroxy-benzylamino)-azetidin-1-yl]-5-methyl-2,2-diphenyl-hexanoic acid amide] | 2080
CC(C)(CCC(C(N)=O)(c1ccccc1)c1ccccc1)N1CC(NCc2cc(Cl)ccc2O)C1 [Example 4, 5-[3-(5-Chloro-2-hydroxy-benzylamino)-azetidin-1-yl]-5-methyl-2,2-diphenyl-hexanoic acid amide] | 56800
CC(C)(CCC(C(N)=O)(c1ccccc1)c1ccccc1)N1CC(NCc2cc(F)ccc2O)C1 [Example 5, 5-[3-(5-Fluoro-2-hydroxy-benzylamino)-azetidin-1-yl]-5-methyl-2,2-diphenyl-hexanoic acid amide] | 2530
CC(C)(CCC(C#N)(c1ccccc1)c1ccccc1)N1CC(NCc2cc(F)ccc2O)C1 [Example 7, 5-[3-(5-Fluoro-2-hydroxy-benzylamino)-azetidin-1-yl]-5-methyl-2,2-diphenyl-hexanenitrile] | 4370

Next, values leading:

Ki [pM] | Structure (SMILES)
727 | CC(C)(CCC(C(N)=O)(c1ccccc1)c1ccccc1)N1CC(NCc2cccc(O)c2)C1 [Example 6, 5-[3-(3-Hydroxy-benzylamino)-azetidin-1-yl]-5-methyl-2,2-diphenyl-hexanoic acid amide]
> 315000 | CC(C)(CCC(C#N)(c1ccccc1)c1ccccc1)N1CC(NCc2cc(Cl)ccc2O)C1 [Example 8, 5-[3-(5-Chloro-2-hydroxy-benzylamino)-azetidin-1-yl]-5-methyl-2,2-diphenyl-hexanenitrile]
594 | CC(C)(CCC(C(N)=O)(c1ccccc1)c1ccccc1)N1CC(NCc2ccccc2O)C1 [Example 9, 5-[3-(2-Hydroxy-benzylamino)-azetidin-1-yl]-5-methyl-2,2-diphenyl-hexanoic acid amide]
396 | CC(C)(CCC(C(N)=O)(c1ccccc1)c1ccccc1)N1CC(NCc2ccc(F)c(O)c2)C1 [Example 10, 5-[3-(4-Fluoro-3-hydroxy-benzylamino)-azetidin-1-yl]-5-methyl-2,2-diphenyl-hexanoic acid amide]
905 | CC(C)(CCC(C(N)=O)(c1ccccc1)c1ccccc1)N1CC(NCc2ccc(Cl)c(O)c2)C1 [Example 12, 5-[3-(4-Chloro-3-hydroxy-benzylamino)-azetidin-1-yl]-5-methyl-22-diphenyl-hexanoic acid amide]
368 | CC(C)(CCC(C(N)=O)(c1ccccc1)c1ccccc1)N1CC(Sc2cccc(O)c2)C1 [Example 15, 5-[3-(3-Hydroxy-phenylsulfanyl)-azetidin-1-yl]-5-methyl-2,2-diphenyl-hexanoic acid amide]
